Measured values: patent US20100022604A1, “PROPHYLACTIC OR THERAPEUTIC AGENT FOR ALOPECIA” (TAISHO PHARMACEUTICAL CO., LTD., priority 2006, published 2010)

System: C57BL mice, shaved dorsal area (hair growth)
Assay: Hair growth stimulatory effect measurement test in shaved mouse model
Assay type: in vivo
Method: Hair Growth Stimulatory Effect Measurement Test in Shaved Mouse Model
Dorsal hair of each of C57BL mice (female, about 7-week old) was shaved, and 200 μL of each of test compounds (90 mM) dissolved into 99% ethanol was applied to the shaved area once a day for 40 days from the day 3 after the shaving. As the evaluated compounds, the compound of the present invention and the compound (GPI-1511) disclosed in International Publication No. WO98/55090 were used. As a control, a group in which 200 μL of the vehicle was applied was used.
A hair growth state of the shaved area of each of 10 to 12 mice of each group was rated every 2 or 3 days after the start of administration by using the following hair growth score criteria.
(Hair Growth Score Criteria)
2=hair growth in less than 30% of shaved area
3=hair growth in 30% or more and less than 60% of shaved area
4=hair growth in 60% or more and less than 90% of shaved area
5=hair growth in 90% or more of shaved area

Q: Which results are given for COc1ccc(OCc2nc([C@@H]3CCCN3C(=O)C(F)(F)C3(O)CC(C)(C)CC(C)(C)C3)no2)cc1OC [compound of the present invention, 1-[2-((2S)-2-{5-[(3,4-dimethoxyphenoxy)methyl]-1,2,4-oxadiazol-3-yl}pyrrolidin-1-yl)-1,1-difluoro-2-oxoethyl]-3,3,5,5-tetramethylcyclohexanol]?
A: increase in hair growth score from the day 19 of the administration (18 μmol topical once a day, from day 19 of administration): remarkable; hair growth score compared to the group with GPI-1511 (18 μmol topical once a day, over the whole test period): higher than that of the group with GPI-1511 over the whole test period; hair growth score compared to the vehicle (control) group (female, 18 μmol (200 μL of 90 mM in 99% ethanol) applied to the shaved area once a day for 40 days, score 1-5, FIG. 1): an increase in hair growth score was exhibited from an early stage
